From patent US9321752B2, “Pyrazole derivative” (GREEN TECH CO., LTD., priority 2012, dated 2016)

Tests used:
[1] = biological target: Recombinant three-repeat microtubule-binding domain (3R-MBD) of tau protein (Homo sapiens, UniProt P10636); assay: Determination of tau aggregation inhibitory activity (thioflavin T fluorescence, heparin-induced); assay type: biochemical; conditions: for IC50: 10 μM tau 3R-MBD, 10 μM heparin, 37° C. for 16 hours, thioflavin T; for Emax: 16 h, maximum inhibition at the concentrations used (0.1, 0.3, 1, 3, and 10 μM)
Protocol: Recombinant three-repeat microtubule-binding domain (3R-MBD) of tau protein was expressed in E. coli and was purified and used for the experiment. The purified tau solution was diluted with a 50 mM Tris-HCl buffer (pH 7.6) to a final concentration of 10 μM. The test compounds were prepared using dimethylsulfoxide (hereinafter also referred to as DMSO) at 20-fold of their final concentrations and added to the tau solution so that the DMSO concentration would be 5%. To this solution, heparin was added so that the final concentration would be 10 μM and the plate was left to stand at 37° C. for 16 hours. Thioflavin T was added to the plate so that the concentration would be 10 μM and the fluorescence intensity was measured with a fluorescence plate reader (PerkinElmer, Inc.)(excitation wavelength: 440 nm; fluorescence wavelength: 486 nm). The final concentration of each compound at the time of measurement was set at 0.1, 0.3, 1, 3, and 10 μM. The sample to which only DMSO was added was used as a negative control and its fluorescence intensity was taken as 0% inhibitory activity to determine the 50% inhibitory concentration (IC50) of each compound.

[2] = Concentration measurement in brain after oral administration; assay type: in vivo; conditions: ICR mice (male, 7 weeks old), single dose of 5 mg/kg, whole brain, LC/MS/MS
Protocol: Each of the compounds of the present invention shown in Tables 40 and 41 and the compound of Example 2 of JP 2012-229208 A was orally administered to ICR mice (male, 7 weeks old) in a single dose of 5 mg/kg. At 3, 6 and 9 hours after the administration, 1, 3, 6 and 9 hours after the administration, or 1, 3, 6, 9 and 24 hours after the administration, the mice were subjected to perfusion by infusing physiological saline into the heart under inhalational anesthesia with isoflurane, and the whole brain was harvested. Physiological saline was added to the harvested brain in an amount equal to twice the wet weight of the brain and the brain was homogenized. Then, an equal volume of methanol was added thereto, and the mixture was deproteinized. The concentration of each compound in the sample was measured by LC/MS/MS.

Chain of Recombinant three-repeat microtubule-binding domain (3R-MBD) of tau protein (P10636 2-758 limits assumed): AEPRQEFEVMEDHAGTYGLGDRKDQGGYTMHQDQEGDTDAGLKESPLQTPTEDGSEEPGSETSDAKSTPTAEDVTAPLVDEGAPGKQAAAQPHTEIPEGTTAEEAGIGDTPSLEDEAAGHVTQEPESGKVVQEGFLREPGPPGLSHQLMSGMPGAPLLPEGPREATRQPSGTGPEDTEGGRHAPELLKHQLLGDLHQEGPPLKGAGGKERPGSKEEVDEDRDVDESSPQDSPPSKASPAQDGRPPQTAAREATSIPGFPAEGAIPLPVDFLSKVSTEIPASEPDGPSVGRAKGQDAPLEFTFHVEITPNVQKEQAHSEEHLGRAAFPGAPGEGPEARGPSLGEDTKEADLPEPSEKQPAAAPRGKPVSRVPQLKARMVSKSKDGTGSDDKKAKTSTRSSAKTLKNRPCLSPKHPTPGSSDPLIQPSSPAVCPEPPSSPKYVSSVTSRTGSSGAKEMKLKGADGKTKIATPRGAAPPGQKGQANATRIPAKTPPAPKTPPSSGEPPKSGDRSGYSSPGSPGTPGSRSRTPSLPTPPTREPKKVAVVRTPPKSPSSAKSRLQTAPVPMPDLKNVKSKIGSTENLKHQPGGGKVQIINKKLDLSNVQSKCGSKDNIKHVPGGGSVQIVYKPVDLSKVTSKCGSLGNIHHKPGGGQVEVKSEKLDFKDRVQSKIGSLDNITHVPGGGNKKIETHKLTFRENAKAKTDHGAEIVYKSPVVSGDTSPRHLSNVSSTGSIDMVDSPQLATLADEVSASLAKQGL

With `COc1cc(OCc2ccccn2)ccc1/C=C/c1cc(/C=C/c2cccn2C)[nH]n1` [Example 22-2, 2-[[3-methoxy-4-[(E)-2-[5-[(E)-2-(1-methylpyrrol-2-yl)vinyl]-1H-pyrazol-3-yl]vinyl]phenoxy]methyl]pyridine] the IC50 [1] was 0.66 µM, the Emax [1] was 90% and the “AUC0-9 h in brain” value [2] was 458 ng · hr/g-tissue.

`CN1CCCN(c2ccc(/C=C/c3cc(/C=C/c4ccc5ccn(C)c5c4)[nH]n3)cc2)CC1` [Example 43-2, 1-methyl-6-[(E)-2-[3-[(E)-2-[4-(4-methyl-1,4-diazepan-1-yl)phenyl]vinyl]-1H-pyrazol-5-yl]vinyl]indole] gave an Emax [1] of 92%.

Molecule `Cn1ccc2ccc(/C=C/c3cc(/C=C/c4ccc(OCc5ccccn5)cc4)n[nH]3)cc21` [Example 17-2, 1-methyl-6-[(E)-2-[3-[(E)-2-[4-(2-pyridylmethoxy)phenyl]vinyl]-1H-pyrazol-5-yl]vinyl]indole] has an IC50 [1] of 0.65 µM.

For `COc1cc(OCCc2ccccn2)ccc1/C=C/c1cc(/C=C/c2ccc3ccn(C)c3c2)[nH]n1` [Example 44-2, 6-[(E)-2-[3-[(E)-2-[2-methoxy-4-[2-(2-pyridyl)ethoxy]phenyl]vinyl]-1H-pyrazol-5-yl]vinyl]-1-methylindole], the “AUC0-9 h in brain” value [2] was 869 ng · hr/g-tissue.

`COc1cc(OCc2ccccn2)ccc1/C=C/c1cc(/C=C/c2cccc(C)n2)[nH]n1` [Example 25-2, 2-[(E)-2-[3-[(E)-2-[2-methoxy-4-(2-pyridylmethoxy)phenyl]vinyl]-1H-pyrazol-5-yl]vinyl]-6-methylpyridine] showed an IC50 [1] of 0.84 µM.

For `CN1CCN(c2ccc(/C=C/c3cc(/C=C/c4cccn4C)[nH]n3)cc2)CC1` [Example 27-3, 1-methyl-4-[4-[(E)-2-[5-[(E)-2-(1-methylpyrrol-2-yl)vinyl]-1H-pyrazol-3-yl]vinyl]phenyl]piperazine], the Emax [1] was 91% and the “AUC0-24 h in brain” value [2] was 1302 ng · hr/g-tissue.

For `CN1CCCN(c2ccc(/C=C/c3cc(/C=C/c4cccn4C)[nH]n3)cc2)CC1` [Example 28-2, 1-methyl-4-[4-[(E)-2-[5-[(E)-2-(1-methylpyrrol-2-yl)vinyl]-1H-pyrazol-3-yl]vinyl]phenyl]-1,4-diazepane], the Emax [1] was 93%.

For `Cn1cccc1/C=C/c1cc(/C=C/c2ccc(OCc3ccccn3)cc2F)n[nH]1` [Example 19-4, 2-[[3-fluoro-4-[(E)-2-[5-[(E)-2-(1-methylpyrrol-2-yl)vinyl]-1H-pyrazol-3-yl]vinyl]phenoxy]methyl]pyridine], the IC50 [1] was 0.51 µM and the “AUC0-24 h in brain” value [2] was 3499 ng · hr/g-tissue.

In the case of `COc1cc(OCc2ccccn2)ccc1/C=C/c1cc(/C=C/c2ccnn2C)[nH]n1` [Example 42-2, 2-[[3-methoxy-4-[(E)-2-[5-[(E)-2-(2-methylpyrazol-3-yl)vinyl]-1H-pyrazol-3-yl]vinyl]phenoxy]methyl]pyridine], the IC50 [1] is reported as 0.83 µM.

For `Cn1cccc1/C=C/c1cc(/C=C/c2ccc(OCc3ccccn3)cc2)n[nH]1` [Example 20-3, 2-[[4-[(E)-2-[5-[(E)-2-(1-methylpyrrol-2-yl)vinyl]-1H-pyrazol-3-yl]vinyl]phenoxy]methyl]pyridine], the IC50 [1] was 0.55 µM, the Emax [1] was 89% and the “AUC0-24 h in brain” value [2] was 5306 ng · hr/g-tissue.

`COc1cc(OCc2ccccn2)ccc1/C=C/c1cc(/C=C/c2ccc(C)n2C)[nH]n1` [Example 23-2, 2-[[4-[(E)-2-[5-[(E)-2-(1,5-dimethylpyrrol-2-yl)vinyl]-1H-pyrazol-3-yl]vinyl]-3-methoxyphenoxy]methyl]pyridine] showed an IC50 [1] of 0.59 µM and an Emax [1] of 92%.

For `COc1cc(OCCN2CCOCC2)ccc1/C=C/c1cc(/C=C/c2ccc3ccn(C)c3c2)[nH]n1` [Example 14-2, 4-[2-[3-methoxy-4-[(E)-2-[5-[(E)-2-(1-methylindol-6-yl)vinyl]-1H-pyrazol-3-yl]vinyl]phenoxy]ethyl]morpholine], the “AUC0-24 h in brain” value [2] was 24639 ng · hr/g-tissue.

`COc1cc(OCCN2CCOCC2)ccc1/C=C/c1cc(/C=C/c2cccn2C)[nH]n1` [Example 21-2, 4-[2-[3-methoxy-4-[(E)-2-[5-[(E)-2-(1-methylpyrrol-2-yl)vinyl]-1H-pyrazol-3-yl]vinyl]phenoxy]ethyl]morpholine] gave an Emax [1] of 89%.

In the case of `CN1CCN(c2ccc(/C=C/c3cc(/C=C/c4ccc5ccn(C)c5c4)[nH]n3)cc2)CC1` [Example 18-2, 1-methyl-6-[(E)-2-[3-[(E)-2-[4-(4-methylpiperazin-1-yl)phenyl]vinyl]-1H-pyrazol-5-yl]vinyl]indole], the “AUC0-24 h in brain” value [2] is reported as 9781 ng · hr/g-tissue.

With `C(=C\c1cc(/C=C/c2ccc3cc[nH]c3c2)[nH]n1)/c1cccc(OCCN2CCOCC2)c1` [Example 53-2, 4-[2-[3-[(E)-2-[5-[(E)-2-(1H-indol-6-yl)vinyl]-1H-pyrazol-3-yl]vinyl]phenoxy]ethyl]morpholine] the IC50 [1] was 0.84 µM.

`Cc1cc(OCc2ccccn2)ccc1/C=C/c1cc(/C=C/c2cccn2C)[nH]n1` [Example 32-5, 2-[[3-methyl-4-[(E)-2-[5-[(E)-2-(1-methylpyrrol-2-yl)vinyl]-1H-pyrazol-3-yl]vinyl]phenoxy]methyl]pyridine] gave an IC50 [1] of 0.64 µM and an Emax [1] of 90%.

`Cn1ccc2ccc(/C=C/c3cc(/C=C/c4ccc(OCc5ccccn5)cc4F)n[nH]3)cc21` [Example 16-2, 6-[(E)-2-[3-[(E)-2-[2-fluoro-4-(2-pyridylmethoxy)phenyl]vinyl]-1H-pyrazol-5-yl]vinyl]-1-methyl indole] showed an IC50 [1] of 0.6 µM.
